Data published in publication PMC7576278, “IKKε and TBK1 in diffuse large B‐cell lymphoma: A possible mechanism of action of an IKKε/TBK1 inhibitor to repress NF‐κB and IL‐10 signalling” (Journal of Cellular and Molecular Medicine, 2020).

Experiments:
TBK1 = target: T1, TBK1 (Homo sapiens, UniProt Q9UHD2); assay: purified enzyme inhibition (pIC50; assay details not given); type: biochemical
T1 sequence (Q9UHD2 1-729): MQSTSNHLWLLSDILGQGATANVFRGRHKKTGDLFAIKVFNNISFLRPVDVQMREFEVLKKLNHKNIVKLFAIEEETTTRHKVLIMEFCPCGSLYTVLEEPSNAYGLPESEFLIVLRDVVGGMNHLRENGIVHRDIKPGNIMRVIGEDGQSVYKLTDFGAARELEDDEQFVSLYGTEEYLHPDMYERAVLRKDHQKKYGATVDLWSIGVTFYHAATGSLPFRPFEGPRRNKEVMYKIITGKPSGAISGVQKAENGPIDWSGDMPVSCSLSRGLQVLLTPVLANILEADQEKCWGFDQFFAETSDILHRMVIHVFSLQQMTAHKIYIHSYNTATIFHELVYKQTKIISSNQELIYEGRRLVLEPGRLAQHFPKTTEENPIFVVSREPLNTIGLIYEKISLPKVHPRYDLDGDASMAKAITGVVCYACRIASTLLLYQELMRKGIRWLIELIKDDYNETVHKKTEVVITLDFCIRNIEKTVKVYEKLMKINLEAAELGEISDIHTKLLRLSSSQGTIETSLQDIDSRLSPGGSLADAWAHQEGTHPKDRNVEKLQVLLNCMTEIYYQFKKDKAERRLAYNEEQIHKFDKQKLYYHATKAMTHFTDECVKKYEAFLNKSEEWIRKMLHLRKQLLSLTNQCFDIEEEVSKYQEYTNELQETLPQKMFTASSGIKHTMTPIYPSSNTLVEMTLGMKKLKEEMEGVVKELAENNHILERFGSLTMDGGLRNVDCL

IKKε = target: T2, IKKε (Homo sapiens, UniProt Q14164); assay: as above; type: biochemical
T2 construct: gene IKBKE
T2 sequence (Q14164 1-716): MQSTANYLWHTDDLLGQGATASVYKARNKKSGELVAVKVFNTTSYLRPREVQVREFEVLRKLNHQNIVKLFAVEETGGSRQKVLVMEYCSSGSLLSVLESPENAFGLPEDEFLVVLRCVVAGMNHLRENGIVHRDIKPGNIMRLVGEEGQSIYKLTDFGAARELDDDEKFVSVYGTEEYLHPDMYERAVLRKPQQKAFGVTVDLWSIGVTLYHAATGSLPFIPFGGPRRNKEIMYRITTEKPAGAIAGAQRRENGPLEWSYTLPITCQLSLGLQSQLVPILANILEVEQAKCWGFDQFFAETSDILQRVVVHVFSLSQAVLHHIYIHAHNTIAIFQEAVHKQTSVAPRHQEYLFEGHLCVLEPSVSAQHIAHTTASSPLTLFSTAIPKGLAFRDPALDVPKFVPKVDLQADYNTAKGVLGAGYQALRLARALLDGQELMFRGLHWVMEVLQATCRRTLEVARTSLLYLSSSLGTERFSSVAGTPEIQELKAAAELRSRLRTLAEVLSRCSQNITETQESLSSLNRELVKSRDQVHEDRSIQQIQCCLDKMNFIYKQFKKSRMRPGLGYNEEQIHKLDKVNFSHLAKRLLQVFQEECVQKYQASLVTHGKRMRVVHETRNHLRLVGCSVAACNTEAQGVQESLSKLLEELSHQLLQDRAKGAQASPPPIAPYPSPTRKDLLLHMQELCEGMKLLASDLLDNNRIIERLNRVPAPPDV

N#Cc1cc(-c2ccnc(Nc3ccc(NC(=O)CN4CCOCC4)nc3)n2)cnc1N1CC[C@H](F)C1 [DMX3433]
IC50 (TBK1): 12.6 nM
IC50 (IKKε): 15.8 nM
